Measured values reported in US10253007B2, “Taxanes compounds, preparation method therefor, and uses thereof” (Jiangsu Tasly Diyi Pharmaceutical Co., Ltd., priority 2013, dated 2019).
Entries after “also recorded” stand apart in the source; their conditions may differ.

Legend:
A2780 ovarian cancer = test: MTT assay, proliferation inhibition; type: cell-based; details: Homo sapiens, read-out: Proliferation inhibition rate
Text: (§1) 1. Cytotoxicity Assay Using Human Tumor Cell Lines
(§2) Paclitaxel was used as the positive drug.

B16 melanoma = test: MTT assay, proliferation inhibition; type: cell-based; details: read-out: Proliferation inhibition rate
Text: as §1, §2

DU145 prostate cancer = test: MTT assay, proliferation inhibition; type: cell-based; details: Homo sapiens, DU-145, read-out: Proliferation inhibition rate
Text: as §1, §2

MCF-7 breast cancer = test: MTT assay, proliferation inhibition; type: cell-based; details: Homo sapiens, MCF7, read-out: Proliferation inhibition rate
Text: as §1, §2

[1] = MTT assay, proliferation inhibition; type: cell-based; details: Homo sapiens, LN-18 gastric cancer, read-out: Proliferation inhibition rate
Text: as §1, §2

[2] = system: A549 non-small cell lung cancer; test: MTT assay, proliferation inhibition; type: cell-based; details: Homo sapiens, read-out: Proliferation inhibition rate
Text: as §1, §2

K562 leukemia = test: MTT assay, proliferation inhibition; type: cell-based; details: Homo sapiens, read-out: Proliferation inhibition rate
Text: as §1, §2

HCT 116 colon cancer = test: MTT assay, proliferation inhibition; type: cell-based; details: Homo sapiens, read-out: Proliferation inhibition rate
Text: as §1, §2

MDA-MB-436 breast cancer = test: MTT assay, proliferation inhibition; type: cell-based; details: Homo sapiens, read-out: Proliferation inhibition rate
Text: as §1, §2

BGC-823 gastric cancer = test: MTT assay, proliferation inhibition; type: cell-based; details: Homo sapiens, read-out: Proliferation inhibition rate
Text: as §1, §2

A375 melanoma = test: MTT assay, proliferation inhibition; type: cell-based; details: Homo sapiens, A-375, read-out: Proliferation inhibition rate
Text: as §1, §2

[3] = system: NCI-H460 non-small cell lung cancer; test: MTT assay, proliferation inhibition; type: cell-based; details: Homo sapiens, read-out: Proliferation inhibition rate
Text: as §1, §2

HeLa cervical cancer = test: MTT assay, proliferation inhibition; type: cell-based; details: Homo sapiens, read-out: Proliferation inhibition rate
Text: as §1, §2

LNCaP prostate cancer = test: MTT assay, proliferation inhibition; type: cell-based; details: Homo sapiens, read-out: Proliferation inhibition rate
Text: as §1, §2

HL60 leukemia = test: MTT assay, proliferation inhibition; type: cell-based; details: Homo sapiens, HL-60, read-out: Proliferation inhibition rate
Text: as §1, §2

HT29 colon cancer = test: MTT assay, proliferation inhibition; type: cell-based; details: Homo sapiens, HT-29, read-out: Proliferation inhibition rate
Text: as §1, §2

[4] = Caco-2 cell monolayer membrane transport assay; details: human; for recovery: Caco-2, Recovery rate in mass
Text: (§3) Caco-2 Cell Monolayer Membrane Transport Assay
(§4) Human-derived colorectal adenocarcinoma cell line Caco-2 cell monolayer model was used to study the bidirectional transport of the target compounds from the apical (AP) side to the basolateral (BL) side and from BL side to AP side. HPLC was used for quantitative analysis to calculate transport parameters, apparent permeability coefficient (Papp) and the efflux ratio.

Caco-2 cell monolayer = Caco-2 cell monolayer membrane transport assay; details: Caco-2 monolayer
Text: as §3, §4

[5] = system: breast cancer cell line MCF-7; test: IC50 values on breast cancer cell line MCF-7; type: cell-based; details: Homo sapiens, MCF7, 72 h, read-out: MCF-7(IC50, nM)
How it was run: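 MCF-7 human breast cancer cells exposed to compounds for 72 h, with paclitaxel as positive control. IC50 from three independent repeats with replicate wells.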

SMILES: CO[C@H]1C(=O)[C@]2(C)[C@@H](OC(=O)N(C)C)C[C@H]3OC[C@@]3(OC(C)=O)[C@H]2[C@H](OC(=O)c2ccccc2)[C@]2(O)C[C@H](OC(=O)[C@H](O)[C@@H](NC(=O)OC(C)(C)C)c3ccccc3)C(C)=C1C2(C)C [PCMI-31]
- inhibition at 1 µM (A2780 ovarian cancer): 95.6%
- inhibition at 1 µM (B16 melanoma): 81.8%
- inhibition at 1 µM (DU145 prostate cancer): 85.8%
- inhibition at 1 µM (MCF-7 breast cancer): 90.8%
- inhibition at 1 µM [1]: 95.6%
- inhibition at 1 µM [2]: 76%
- inhibition at 1 µM (K562 leukemia): 93.2%
- inhibition at 1 µM (HCT 116 colon cancer): 60.7%
- inhibition at 1 µM (MDA-MB-436 breast cancer): 86.3%
- inhibition at 1 µM (BGC-823 gastric cancer): 96.2%
- inhibition at 1 µM (A375 melanoma): 88.4%
- inhibition at 1 µM [3]: 87.7%
- inhibition at 1 µM (HeLa cervical cancer): 103%
- inhibition at 1 µM (LNCaP prostate cancer): 82.2%
- inhibition at 1 µM (HL60 leukemia): 97.8%
- inhibition at 1 µM (HT29 colon cancer): 89.4%
- Papp B→A ([4]; Caco-2): 26 ×10⁻⁶ cm/s
- efflux ratio ([4]; Caco-2): 1.73
- Papp A→B ([4]; Caco-2, Papp A-B, Caco-2 cell line (21 days), bidirectional transport, Table 5): 15 ×10⁻⁶ cm/s
- Papp A→B ([4]; Caco-2, Papp A-B, Mean, Caco-2, A-B, mean of two samples): 10.6 ×10⁻⁶ cm/s
- Papp A→B ([4]; Caco-2, Papp A-B, Sample-01, Caco-2, A-B, Sample-01): 11.2 ×10⁻⁶ cm/s
- Papp A→B ([4]; Caco-2, Papp A-B, Sample-02, Caco-2, A-B, Sample-02): 9.91 ×10⁻⁶ cm/s
- Papp A→B ([4]; Caco-2, Papp A-to-B, Caco-2): > 10 ×10⁻⁶ cm/s
- recovery ([4]; Mean, Caco-2, A-B, mean of two samples): 86.8%
- recovery ([4]; Sample-01, Caco-2, A-B, Sample-01): 83%
- recovery ([4]; Sample-02, Caco-2, A-B, Sample-02): 90.6%
- membrane permeability (in words) (Caco-2 cell monolayer): highly permeable substrates; also recorded: highest membrane permeability
- IC50 [5]: 9.63 ± 0.12 nM
